Measurements as given in patent US11441126B2, “Platform for the induction and maintenance of ground state pluripotency” (Fate Therapeutics, Inc., priority 2015, dated 2022).

Test system: hiPSC clone FTi111
Assay: Post-thaw recovery of hiPSC clone in various culture environments
Format: cell-based, human
Details: conventional culture with feeder cells

O=C(NCc1ccccc1)c1csc(Nc2ccncn2)n1 [Thiazovivin]
recovery of hiPSC colonies after thaw: only recovered in the presence of Thiazovivin
